Laboratory results reported in patent US20260265259A1, “SUBSTITUTED 6-IMIDAZOPYRIDAZINE IL-17A MODULATORS AND USES THEREOF” (DICE ALPHA, INC., priority 2023, published 2026).

tested on: IL-17A/A; experiment: IL-17A/A HEK-Blue cell assay; format: cell-based; settings: HEK-Blue, 20 h, IL-17A/A inhibition, HEK-Blue IL-17A reporter cell line, IL17A/A 5 ng/mL, SEAP read at A630, read-out: AA IC50
Protocol: The HEK-Blue IL-17A reporter cell line (Fisher #NC1408637) was used for cell-based IL-17A/A inhibition assays. Cells were grown and prepared for assays according to the manufacturer's instructions. This cell line consists of HEK 293 cells that were designed to expressed IL-17RA, IL-17RC, and the Act1 adapter molecule, the combination of which, when stimulated by IL-17A/A or IL17A/F activates a NFκB promoter and drives expression of the recombinant Secreted Alkaline Phosphatase (SEAP) gene. Media from the cells is then added to a development reagent (Quanti-Blue Substrate, Fisher #NC9711613), and read at A630.
Compounds were dispensed in DMSO to an empty clear 384-well tissue culture plate in a titration ranging from 10 μM to 27 pM, with DMSO added to every well to a final concentration of 0.1%. Cells were then added to the plate (45 μL/well at a concentration of 280,000 cells/mL). IL17A/A (Genscript #Z03228) or IL17A/F (R&D Systems) was added to the plate to a final concentration of 5 ng/mL and a final well volume of 50 μL. The cells, compound, and IL-17A/A or IL17A/F were then incubated for 20 hours before media was removed for SEAP analysis. The resulting inhibition curve was then analyzed using Dotmatics' integrated 4-parameter fit screening protocol to generate IC50 values.

Row | Compound | IC50 [nM]
1 | O=C(N[C@H](c1cn2nc(C[C@H]3C[C@@H](C(F)(F)F)CNC3=O)c(C3CCOC3)cc2n1)C1CCC(F)(F)CC1)c1nonc1C1CC1 (single isomer, unassigned) [Compound 45] | < 100
2 | CCn1nccc1C(=O)N[C@H](c1cn2nc(C[C@H]3C[C@@H](C(F)(F)F)CNC3=O)c(-c3cccnc3)cc2n1)C1CCC(F)(F)CC1 [Compound 3] | 100 to 1000
3 | CCn1nccc1C(=O)N[C@H](c1cn2nc(C[C@H]3C[C@@H](C(F)(F)F)CNC3=O)c(-c3cncnc3)cc2n1)C1CCC(F)(F)CC1 [Compound 4] | 100 to 1000
4 | CCn1nccc1C(=O)N[C@H](c1cn2nc(C[C@H]3C[C@@H](C(F)(F)F)CNC3=O)c(C3COC3)cc2n1)C1CCC(F)(F)CC1 [Compound 5] | < 100
5 | CCn1nccc1C(=O)N[C@H](c1cn2nc(C[C@H]3C[C@@H](C(F)(F)F)CNC3=O)c(C3CCOC3)cc2n1)C1CCC(F)(F)CC1 (stereo partly drawn) [Compound 6] | < 100
6 | CCn1nccc1C(=O)N[C@H](c1cn2nc(C[C@H]3C[C@@H](C(F)(F)F)CNC3=O)c(C3CCCOC3)cc2n1)C1CCC(F)(F)CC1 (stereo partly drawn) [Compound 7] | 100 to 1000
7 | CCn1nccc1C(=O)N[C@H](c1cn2nc(C[C@@H]3C[C@@H](C(F)(F)F)CNC3=O)c(-c3cccnc3)cc2n1)C1CCC(F)(F)CC1 [Compound 8] | 100 to 1000
8 | CCn1nccc1C(=O)N[C@H](c1cn2nc(C[C@@H]3C[C@@H](C(F)(F)F)CNC3=O)c(-c3cncnc3)cc2n1)C1CCC(F)(F)CC1 [Compound 9] | > 1000
9 | CCn1nccc1C(=O)N[C@H](c1cn2nc(C[C@@H]3C[C@@H](C(F)(F)F)CNC3=O)c(C3CCOC3)cc2n1)C1CCC(F)(F)CC1 (stereo partly drawn) [Compound 10] | 100 to 1000
10 | CCn1nccc1C(=O)N[C@H](c1cn2nc(CC3C[C@@H](C(F)(F)F)CNC3=O)c(N3CCOCC3)cc2n1)C1CCC(F)(F)CC1 (stereo partly drawn) [Compound 14] | < 100
11 | O=C(N[C@H](c1cn2nc(CC3C[C@@H](C(F)(F)F)CNC3=O)c(N3CCOCC3)cc2n1)C1CCC(F)(F)CC1)c1nonc1C1CC1 (stereo partly drawn) [Compound 15] | < 100
12 | O=C(N[C@H](c1cn2nc(C[C@H]3C[C@@H](C(F)(F)F)CNC3=O)c(N3CCOCC3)cc2n1)C1CCC(F)(F)CC1)c1nonc1C1CC1 [Compound 16] | < 100
13 | O=C(N[C@H](c1cn2nc(C[C@@H]3C[C@@H](C(F)(F)F)CNC3=O)c(N3CCOCC3)cc2n1)C1CCC(F)(F)CC1)c1nonc1C1CC1 [Compound 17] | 100 to 1000
14 | CCn1nccc1C(=O)N[C@H](c1cn2nc(C[C@H]3C[C@@H](C(F)(F)F)CNC3=O)c(N3CCCCC3)cc2n1)C1CCC(F)(F)CC1 [Compound 18] | < 100
15 | CCn1nccc1C(=O)N[C@H](c1cn2nc(C[C@H]3C[C@@H](C(F)(F)F)CNC3=O)c(N3CCC(F)(F)CC3)cc2n1)C1CCC(F)(F)CC1 [Compound 19] | < 100
16 | CCn1nccc1C(=O)N[C@H](c1cn2nc(C[C@H]3C[C@@H](C(F)(F)F)CNC3=O)c(N3CCN(C)CC3)cc2n1)C1CCC(F)(F)CC1 [Compound 20] | < 100
17 | CCn1nccc1C(=O)N[C@H](c1cn2nc(C[C@H]3C[C@@H](C(F)(F)F)CNC3=O)c(C3CCOCC3)cc2n1)C1CCC(F)(F)CC1 [Compound 21, N—((S)-(4,4-difluorocyclohexyl)(6-(((3R,5R)-2-oxo-5-(trifluoromethyl)piperidin-3-yl)methyl)-7-(tetrahydro-2H-pyran-4-yl)imidazo[1,2-b]pyridazin-2-yl)methyl)-1-ethyl-1H-pyrazole-5-carboxamide] | < 100
18 | CCn1nccc1C(=O)N[C@H](c1cn2nc(C[C@H]3C[C@@H](C(F)(F)F)CNC3=O)c(N3CCCC3)cc2n1)C1CCC(F)(F)CC1 [Compound 22] | < 100
19 | CCn1nccc1C(=O)N[C@H](c1cn2nc(C[C@H]3C[C@@H](C(F)(F)F)CNC3=O)c(N3CCC3)cc2n1)C1CCC(F)(F)CC1 [Compound 23] | < 100
20 | CCn1nccc1C(=O)N[C@H](c1cn2nc(C[C@@H]3C[C@@H](C(F)(F)F)CNC3=O)c(N3CCC3)cc2n1)C1CCC(F)(F)CC1 [Compound 24] | > 1000

Row | Compound | IC50 [nM]
21 | CCn1nccc1C(=O)N[C@H](c1cn2nc(C[C@H]3C[C@@H](C(F)(F)F)CNC3=O)c(N3CCOCC3)cc2n1)[C@H]1CCCC(F)(F)C1 [Compound 25] | < 100
22 | CCn1nccc1C(=O)N[C@H](c1cn2nc(C[C@H]3C[C@@H](C(F)(F)F)CNC3=O)c(N3CCOCC3)cc2n1)[C@@H]1CCCC(F)(F)C1 [Compound 26] | < 100
23 | CC(C)n1nccc1C(=O)N[C@H](c1cn2nc(C[C@H]3C[C@@H](C(F)(F)F)CNC3=O)c(N3CCOCC3)cc2n1)[C@H]1CCCC(F)(F)C1 [Compound 27] | < 100
24 | CC(C)n1nccc1C(=O)N[C@H](c1cn2nc(C[C@H]3C[C@@H](C(F)(F)F)CNC3=O)c(N3CCOCC3)cc2n1)[C@@H]1CCCC(F)(F)C1 [Compound 28] | < 100
25 | O=C(N[C@H](c1cn2nc(C[C@H]3C[C@@H](C(F)(F)F)CNC3=O)c(N3CCOCC3)cc2n1)[C@H]1CCCC(F)(F)C1)c1nonc1C1CC1 [Compound 29] | < 100
26 | O=C(N[C@H](c1cn2nc(C[C@H]3C[C@@H](C(F)(F)F)CNC3=O)c(N3CCOCC3)cc2n1)[C@@H]1CCCC(F)(F)C1)c1nonc1C1CC1 [Compound 30] | < 100
27 | CCn1nccc1C(=O)N[C@H](c1cn2nc(C[C@H]3C[C@@H](C(F)(F)F)CNC3=O)c(N3CCOCC3C)cc2n1)C1CCC(F)(F)CC1 (stereo partly drawn) [Compound 32] | 100 to 1000
28 | CCn1nccc1C(=O)N[C@H](c1cn2nc(C[C@H]3C[C@@H](C(F)(F)F)CNC3=O)c(N3CCO[C@H](C)C3)cc2n1)C1CCC(F)(F)CC1 [Compound 33, N—((S)-(4,4-difluorocyclohexyl)(7-((R)-2-methylmorpholino)-6-(((3R,5R)-2-oxo-5-(trifluoromethyl)piperidin-3-yl)methyl)imidazo[1,2-b]pyridazin-2-yl)methyl)-1-ethyl-1H-pyrazole-5-carboxamide] | < 100
29 | CCn1nccc1C(=O)N[C@H](c1cn2nc(C[C@H]3C[C@@H](C(F)(F)F)CNC3=O)c(N3CC4CC(C3)O4)cc2n1)C1CCC(F)(F)CC1 [Compound 35] | < 100
30 | CCn1nccc1C(=O)N[C@H](c1cn2nc(C[C@H]3C[C@@H](C(F)(F)F)CNC3=O)c(C3CC3)cc2n1)C1CCC(F)(F)CC1 [Compound 36] | < 100
31 | CCn1nccc1C(=O)N[C@H](c1cn2nc(C[C@H]3C[C@@H](C(F)(F)F)CNC3=O)c(N3CCOCC3)cc2n1)C1CCC(F)(F)CC1 [Compound 37] | < 100
32 | O=C(N[C@H](c1cn2nc(C[C@H]3C[C@H](C(F)(F)F)CNC3=O)c(N3CCOCC3)cc2n1)C1CCC(F)(F)CC1)c1nonc1C1CC1 [Compound 38] | < 100
33 | O=C(N[C@H](c1cn2nc(C[C@@H]3C[C@H](C(F)(F)F)CNC3=O)c(N3CCOCC3)cc2n1)C1CCC(F)(F)CC1)c1nonc1C1CC1 [Compound 39] | > 1000
34 | O=C(N[C@H](c1cn2nc(C[C@H]3C[C@@H](C(F)(F)F)CNC3=O)c(N3CC(F)(F)C3)cc2n1)C1CCC(F)(F)CC1)c1nonc1C1CC1 [Compound 40] | 100 to 1000
35 | CCn1nccc1C(=O)N[C@H](c1cn2nc(C[C@H]3C[C@@H](C(F)(F)F)CNC3=O)c(N3CC(F)(F)C3)cc2n1)C1CCC(F)(F)CC1 [Compound 41] | 100 to 1000
36 | O=C(N[C@H](c1cn2nc(C[C@H]3C[C@@H](C(F)(F)F)CNC3=O)c(N3CC4(COC4)C3)cc2n1)C1CCC(F)(F)CC1)c1nonc1C1CC1 [Compound 42] | 100 to 1000
37 | CCn1nccc1C(=O)N[C@H](c1cn2nc(C[C@H]3C[C@@H](C(F)(F)F)CNC3=O)c(N3CC4(COC4)C3)cc2n1)C1CCC(F)(F)CC1 [Compound 43] | 100 to 1000
38 | O=C(N[C@H](c1cn2nc(C[C@H]3C[C@@H](C(F)(F)F)CNC3=O)c([C@H]3CCOC3)cc2n1)C1CCC(F)(F)CC1)c1nonc1C1CC1 [Compound 44] | < 100
39 | CCn1nccc1C(=O)N[C@H](c1cn2nc(C[C@H]3C[C@@H](C(F)(F)F)CNC3=O)c(C3CCCC3)cc2n1)C1CCC(F)(F)CC1 [Compound 46] | < 100
40 | CCn1nccc1C(=O)N[C@H](c1cn2nc(C[C@H]3C[C@@H](C(F)(F)F)CNC3=O)c(N3CC4(CCCOC4)C3)cc2n1)C1CCC(F)(F)CC1 [Compound 47] | < 100

same assay, conditions: IL-17A/A inhibition, HEK-Blue IL-17A reporter cell line, IL17A/A 5 ng/mL, 20 hours, SEAP read at A630; read-out: AA IC50

Row | Compound | IC50 [nM]
41 | CCn1nccc1C(=O)N[C@H](c1cn2nc(C[C@H]3C[C@@H](C(F)(F)F)CNC3=O)c(C3CCCOC3)cc2n1)C1CCC(F)(F)CC1 (stereo partly drawn) [Compound 2] | 100 to 1000
42 | CCn1nccc1C(=O)N[C@H](c1cn2nc(C[C@@H]3C[C@@H](C(F)(F)F)CNC3=O)c(C3CCOC3)cc2n1)C1CCC(F)(F)CC1 (stereo partly drawn) [Compound 11] | 100 to 1000
43 | CCn1nccc1C(=O)N[C@H](c1cn2nc(C[C@H]3C[C@@H](C(F)(F)F)CNC3=O)c(C3CCCOC3)cc2n1)C1CCC(F)(F)CC1 (stereo partly drawn) [Compound 12] | < 100
44 | CCn1nccc1C(=O)N[C@H](c1cn2nc(C[C@H]3C[C@@H](C(F)(F)F)CNC3=O)c(C3CCCOC3)cc2n1)C1CCC(F)(F)CC1 (stereo partly drawn) [Compound 13] | < 100
45 | CCn1nccc1C(=O)N[C@H](c1cn2nc(C[C@H]3C[C@@H](C(F)(F)F)CNC3=O)c(N3CCOC(C)C3)cc2n1)C1CCC(F)(F)CC1 (stereo partly drawn) [Compound 34] | < 100
